Data reported in US10500207B2, “Compounds for the treatment of diseases associated with amyloid or amyloid-like proteins” (AC Immune SA, priority 2010, dated 2019).

Target: Aβ1-42 peptide (Homo sapiens, UniProt P05067)
Assay: Thioflavin T spectrofluorescence assay (ThT-assay): inhibition of Aβ1-42 aggregation (% inhibition at 330 μM; IC50 from dilution series)
Conditions: 24 h, read-out: Inhibition at 330 μM [%], ThT assay; 330 μM small molecule, 33 μM Aβ1-42 (10:1), 24 hrs at 37° C.; mean ± standard deviation of two independent experiments
Procedure: Aβ1-42 lyophilized powder (Bachem) was reconstituted in hexafluoroisopropanol (HFIP) to 1 mM. The peptide solution was sonicated for 15 min at room temperature, agitated overnight, and aliquots were made into non-siliconized microcentrifuge tubes. The HFIP was then evaporated under a stream of argon. The resulting peptide film was dried under vacuum for 10 min, tightly sealed and stored at −80° C. until used.
A positive control without a small molecule was prepared to measure maximum RFU. A negative control without Aβ1-42 was prepared for each small molecule. […] The solutions were then incubated for 24 hrs at 37° C., and the spectrofluorescence (relative fluorescence units; RFU) were read in six replicates in black 384-well assay plates (Perkin-Elmer) on a Perkin-Elmer FluoroCount spectrofluorometer. The inhibition of aggregation is expressed as mean % inhibition±1 standard deviation (SD) according to the following equation:
Racemic compounds and their enantiomers were tested for their ability to inhibit amyloid peptide aggregation using the ThT assay. To determine the IC50, the following dilutions of the compounds were used in the ThT assay described above:

Aβ1-42 peptide, sequence (P05067 672-713 limits assumed): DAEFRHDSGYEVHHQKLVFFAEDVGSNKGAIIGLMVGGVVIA

Row | Structure (SMILES) | inhibition at 330 µM [%]
1 | c1nc2c(C3CCNCC3)c[nH]c2cc1Nc1ccc2c3c([nH]c2n1)CCCC3 [Example 35] | 97.7 ± 0.3
2 | c1ccc2c(c1)CCC2Nc1ccc2c(C3CCNCC3)c[nH]c2c1 (stereo not drawn) [Example 94] | 94.4 ± 3.6
3 | CN1CCC(c2cn(C)c3nc(Nc4ccc(F)c(F)c4)ccc23)CC1 [Example 151] | 88.5 ± 2.8
4 | CNC1CCc2c(c3ccc(Nc4ccc5[nH]cc(C6CCNCC6)c5c4)nc3n2C)C1 (stereo not drawn) [Example 92] | 99.6 ± 0.6
5 | Cn1c2c(c3ccc(Nc4ccc(F)c(F)c4)nc31)CC(OCCF)CC2 (stereo not drawn) [Example 128] | 88.6 ± 1.2
6 | CNC1CCc2[nH]c3cc(Nc4ccc(OC)c(OC)c4)ccc3c2C1 (stereo not drawn) [Example 120] | 100
7 | CNC1(C)CCc2c(c3ccc(Nc4ccc(OC)c(OC)c4)nc3n2C)C1 (stereo not drawn) [Example 90] | 75.1 ± 0.3
8 | c1cc2c(C3CCNCC3)c[nH]c2cc1Nc1ccc2c3c([nH]c2n1)CCC3 [Example 46] | 99.4
9 | c1nc2[nH]cc(C3CCNCC3)c2cc1Nc1ccc2c3c([nH]c2n1)CCC3 [Example 51] | 95.5 ± 1
10 | COc1ccc(Nc2ccc3c(C4CCN(C)CC4)c[nH]c3c2)cc1OC [Example 91] | 92.5 ± 1.3
11 | CNC1CCc2c(c3ccc(Nc4ccc5c(c4)OCC(=O)N5)nc3n2C)C1 (stereo not drawn) [Example 85] | 95.1 ± 0.9
12 | CC(=O)N1CCN(c2ccc(Nc3ccc4c5c(n(C)c4n3)CCCC5)cc2)CC1 [Example 170] | 70.8 ± 2.3
13 | CN1CCN(C(=O)c2ccc(Nc3ccc4c(c3)OCO4)cc2)CC1 [Example 190] | 20.1 ± 4.6
14 | COc1ccc(Nc2ccc3c(C4CCN(C)CC4)c[nH]c3c2)cc1F [Example 99] | 94.4 ± 0.1
15 | CNC1CCc2c(c3cc(Nc4ccc5c(c4)OCCO5)cnc3n2C)C1 (stereo not drawn) [Example 137] | 83.3 ± 3.3
16 | FC(F)(F)c1ccc(Nc2ccc3c(C4CCNCC4)c[nH]c3c2)cn1 [Example 49] | 81.9 ± 0.6
17 | COc1ccc(Nc2ccc3c(c2)c2c(n3C)CCC(OC)C2)cc1OC (stereo not drawn) [Example 121] | 91 ± 2.5
18 | CN1CCc2ccc(Nc3ccc4c(c3)c3c(n4C)CCS(=O)(=O)C3)cc2C1 [Example 180] | 50.2 ± 0.9
19 | Cn1cc(C2CCNCC2)c2cc(Nc3ccc4c5c([nH]c4n3)CCC5)ccc21 [Example 59] | 99 ± 0.3
20 | Cn1c2c(c3cc(Nc4ccc5c(c4)OCCO5)ccc31)CN(CCCCS(C)(=O)=O)CC2 [Example 209] | 66.2 ± 6.5
21 | CN1CCC(c2c[nH]c3cc(Nc4ccc5[nH]cc(C6CCN(C)CC6)c5c4)ccc23)CC1 [Example 118] | 96.8 ± 0.9
22 | CNC1CCc2c(c3cc(Nc4ccc(F)c(OC)c4)cnc3n2C)C1 (stereo not drawn) [Example 138] | 69.3 ± 0.7
23 | CN1CCC(c2c[nH]c3cc(Nc4ccc5c(c4)OCCN5C)ccc23)CC1 [Example 194] | 106.1 ± 0.3
24 | CNC1CCc2[nH]c3cc(Nc4ccc5c(c4)OCCO5)ccc3c2C1 (stereo not drawn) [Example 132] | 99.4 ± 0.8
25 | Cn1cc(C2CCNCC2)c2cc(Nc3ccc4c(C5CCNCC5)cn(C)c4c3)ccc21 [Example 53] | 96 ± 2.1
26 | CNC1CCc2c(c3ccc(Nc4ccc(F)c(F)c4)cc3n2C)C1 (stereo not drawn) [Example 140] | 93.8 ± 0.6

Row | Structure (SMILES) | inhibition at 330 µM [%]
27 | CN1CCN(c2ccc(Nc3ccc4c5c(n(C)c4n3)CCCC5)cc2)CC1 [Example 166] | 93.6 ± 2.2
28 | N#Cc1c[nH]c2nc(Nc3ccc(F)cc3)ccc12 [Example 15] | 58.6 ± 9.5
29 | COc1cc(Nc2ccc3c(c2)c2c(n3C)CCS(=O)(=O)C2)ccc1C [Example 178] | 35.4 ± 5.9
30 | CNC1(C)CCc2c(c3ccc(Nc4ccc(F)c(F)c4)nc3n2C)C1 (stereo not drawn) [Example 89] | 89.6 ± 5
31 | CNC1CCc2c(c3ccc(Nc4cc(F)cc(F)c4)nc3n2C)C1 (stereo not drawn) [Example 29] | 85.4 ± 0.4
32 | CNC1CCc2c(c3cc(Nc4ccc(F)c(F)c4)cnc3n2C)C1 (stereo not drawn) [Example 134] | 67.3 ± 10.4
33 | Cn1cnc2ccc(Nc3ccc4c5c(n(C)c4n3)CCC5)cc21 [Example 175] | 75.5 ± 7.8
34 | CN1CCC(c2c[nH]c3cc(Nc4ccc5ncn(C)c5c4)ccc23)CC1 [Example 200] | 67.4 ± 3.4
35 | c1cc2c(C3CCNCC3)c[nH]c2cc1Nc1ccc2c(C3CCNCC3)c[nH]c2c1 [Example 63] | 91.5 ± 2.5
36 | Cn1c2c(c3cc(Nc4ccc5c(c4)OCCO5)ccc31)CS(=O)(=O)CC2 [Example 177] | 29.6 ± 6.2
37 | c1ccc(Nc2ccc3c(c2)OCO3)cc1 [Example 185] | 55.2 ± 6
38 | Cn1c2c(c3ccc(Nc4ccc(F)c(F)c4)cc31)CN(CCCCS(C)(=O)=O)CC2 [Example 210] | 43.2 ± 12.9
39 | c1cc2ccc(Nc3ccc4cc[nH]c4c3)cc2[nH]1 [Example 17] | 96.3
40 | Cn1cc(C2CCNCC2)c2ccc(Nc3cccc(N4CCOCC4)c3)cc21 [Example 70] | 91 ± 1.2
41 | CN1CCc2ccc(Nc3ccc4c5c(n(C)c4n3)CCC5)cc2C1 [Example 174] | 87.2 ± 1.3
42 | COC(=O)c1c[nH]c2nc(Nc3ccc4c(C5CCNCC5)c[nH]c4c3)ccc12 [Example 32] | 94.7 ± 1
43 | CC(C)OC1CCc2c(c3ccc(Nc4ccc5c(c4)OCCO5)nc3n2C)C1 (stereo not drawn) [Example 203] | 93.4 ± 3.5
44 | FC(F)(F)c1ccc(Nc2ccc3cc[nH]c3n2)cn1 [Example 4] | 53.5 ± 0.4
45 | Cn1c2c(c3ccc(Nc4ccc5c(c4)OCCO5)cc31)CN(CCCCS(C)(=O)=O)CC2 [Example 207] | 75.6 ± 13.4
46 | Cn1cc(C2CCNCC2)c2ccc(Nc3ccc(F)c(F)c3)cc21 [Example 38] | 90.9 ± 2.7
47 | CN1CCC(c2c[nH]c3cc(Nc4ccc5c(C6CCN(C)CC6)c[nH]c5c4)ccc23)CC1 [Example 119] | 99.2 ± 0.3
48 | Fc1ccc(Nc2ccc3c(C4CCNCC4)c[nH]c3c2)cc1F [Example 52] | 83.6 ± 2.8
49 | COc1cc(Nc2ccc3c(c2)c2c(n3C)CCC(OC)C2)ccc1F (stereo not drawn) [Example 122] | 80.8 ± 2.9
50 | CN1CCC(c2c[nH]c3cc(Nc4ccc5c(c4)OCCCO5)ccc23)CC1 [Example 78] | 75 ± 1.4
51 | c1cc2c(cc1Nc1ccc3c(c1)OCO3)OCO2 [Example 187] | 82.2 ± 6
52 | Cn1c2c(c3ccc(Nc4ccc5c(c4)OCCO5)cc31)CNCC2 [Example 202] | 86.1 ± 1.6

Row | Structure (SMILES) | inhibition at 330 µM [%]
53 | COC1CCc2c(c3ccc(Nc4ccc5c(c4)OCO5)nc3n2C)C1 (stereo not drawn) [Example 205] | 91.7 ± 0.1
54 | CNC1CCc2c(c3ccc(Nc4cc(F)c(F)c(F)c4)nc3n2C)C1 (stereo not drawn) [Example 30] | 84.3 ± 3.1
55 | N#Cc1c[nH]c2nc(Nc3cnc4c(C5CCNCC5)c[nH]c4c3)ccc12 [Example 34] | 79.2 ± 16.2
56 | CN1CCC(c2c[nH]c3cc(Nc4ccc5[nH]cc(C6CCNCC6)c5c4)ccc23)CC1 [Example 68] | 90.4 ± 5.3
57 | CNC1CCc2[nH]c3nc(Nc4ccc5c(C6CCNCC6)c[nH]c5c4)ccc3c2C1 (stereo not drawn) [Example 31] | 96.5 ± 0.6
58 | COc1ccc(Nc2ccc3[nH]cc(C4CCN(C)CC4)c3c2)cc1OC [Example 100] | 66.6 ± 1.3
59 | COCCNC1CCc2c(c3ccc(Nc4ccc(OC)c(OC)c4)nc3n2C)C1 (stereo not drawn) [Example 142] | 73.2 ± 6.2
60 | Cn1c2c(c3ccc(Nc4ccc5c(c4)OCCO5)nc31)CCC2 [Example 173] | 90.1 ± 2.3
61 | Cn1c2c(c3cc(Nc4ccc(F)c(F)c4)ccc31)CS(=O)(=O)CC2 [Example 176] | 41.5 ± 3.6
62 | CN1CCC(c2c[nH]c3cc(Nc4ccc5c(c4)CNCC5)ccc23)CC1 [Example 154] | 86.3 ± 2.6
63 | c1cc(N2CCOCC2)ccc1Nc1ccc2c(c1)OCO2 [Example 188] | 83.3 ± 6
64 | Fc1ccc(Nc2ccc3c(C4CCNCC4)c[nH]c3n2)cc1F [Example 60] | 83.1 ± 3.4
65 | COCCNC1CCc2c(c3ccc(Nc4ccc(F)c(F)c4)nc3n2C)C1 (stereo not drawn) [Example 141] | 87.5 ± 1.4
66 | c1cc(N2CCOCC2)ccc1Nc1ccc2c(C3CCNCC3)c[nH]c2n1 [Example 69] | 86.5 ± 7.2
67 | Cn1c2c(c3ccc(Nc4ccc(N5CCOCC5)cc4)nc31)CCCC2 [Example 165] | 78.1 ± 0.2
68 | CCOC(=O)N1CCc2c(c3cc(Nc4ccc(F)c(F)c4)ccc3n2C)C1 [Example 199] | 68.6 ± 0.5
69 | CN1CCC(c2cn(C)c3nc(Nc4ccc5c(c4)OCO5)ccc23)CC1 [Example 149] | 84.4 ± 4.1
70 | CNC1CCc2c(c3ccc(Nc4ccc(C)c(OC)c4)nc3n2C)C1 (stereo not drawn) [Example 160] | 96.3 ± 0.3
71 | Cn1cc(C2CCNCC2)c2ccc(Nc3ccc(F)c(F)c3)nc21 [Example 67] | 87.8 ± 4.2
72 | c1ccc(CNc2ccc3cc[nH]c3n2)nc1 [Example 2] | 47.4 ± 8.9
73 | CNC1CCc2c(c3ccc(Nc4ccc5c(c4)CN(C)CC5)nc3n2C)C1 (stereo not drawn) [Example 158] | 87.8 ± 3.6
74 | COc1ccc(Nc2ccc3c(C4CCNCC4)cn(C)c3c2)cc1OC [Example 97] | 83.8 ± 3.7
75 | CNC1CCc2c(c3ccc(Nc4ccc(F)c(F)c4)nc3n2C)C1 (racemic) [Example 26, N^2-(3,4-difluorophenyl)-N^8,9-dimethyl-6,7,8,9-tetrahydro-5H-pyrido[2,3-b]indole-2,6-diamine hydrogenchloride] | 93.4 ± 3.9
76 | COc1ccc(Nc2ccc3c4c(n(C)c3n2)CCC(OCCF)C4)cc1OC (stereo not drawn) [Example 129] | 79.9 ± 0.6
77 | CNC1CCc2c(c3ccc(Nc4ccc5c(c4)OCO5)nc3n2C)C1 (stereo not drawn) [Example 157] | 95 ± 1.5
78 | CN1CCC(c2c[nH]c3cc(Nc4ccc(F)cc4)ccc23)CC1 [Example 195] | 89.7 ± 2.4

Same assay, conditions: IC50 μM 1st assay, ThT assay, dilution series 330 μM to 0.08 μM; 1st assay

Row | Structure (SMILES) | IC50 [µM]
79 | CNC1CCc2c(c3ccc(Nc4ccc(F)c(F)c4)nc3n2C)C1 (single isomer, unassigned) [Example 214a] | 35.4
80 | CNC1CCc2c(c3ccc(Nc4ccc5c(c4)OCCO5)nc3n2C)C1 (single isomer, unassigned) [Example 217a] | 28
81 | CNC1CCc2c(c3ccc(Nc4ccc(F)c(F)c4)nc3n2C)C1 (racemic) [Example 26, N^2-(3,4-difluorophenyl)-N^8,9-dimethyl-6,7,8,9-tetrahydro-5H-pyrido[2,3-b]indole-2,6-diamine hydrogenchloride] | 12.2

Same assay, conditions: IC50 μM 2nd assay, ThT assay, dilution series 330 μM to 0.08 μM; 2nd assay

Row | Structure (SMILES) | IC50 [µM]
82 | CNC1CCc2c(c3ccc(Nc4ccc(F)c(F)c4)nc3n2C)C1 (single isomer, unassigned) [Example 214a] | 33.5
83 | CNC1CCc2c(c3ccc(Nc4ccc5c(c4)OCCO5)nc3n2C)C1 (single isomer, unassigned) [Example 217a] | 23.6
84 | CNC1CCc2c(c3ccc(Nc4ccc(F)c(F)c4)nc3n2C)C1 (racemic) [Example 26, N^2-(3,4-difluorophenyl)-N^8,9-dimethyl-6,7,8,9-tetrahydro-5H-pyrido[2,3-b]indole-2,6-diamine hydrogenchloride] | 16.8
